Results on five compounds are retold here after PubChem BioAssay AID1918932 (Molecular Pharmacology Branch, DTP, NCI, 2023).

Structures are written as SMILES. Where “and” joins values, the source holds several entries; their conditions need not be identical. Equal entries are not always repeated. A value given as a limit tells only on which side of the number the result lay.

For this assay, the system named is 171881-019-R-J1-PDC complex spheroid viability. Nature of the assay: Anticancer human tumor 171881-019-R-J1-PDC patient-derived invasive breast carcinoma cell line growth inhibition. The conditions noted are these: for viability, T/C: stronger effect = lower value. In outline:
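Multicellular complex spheroids of tumor cells with human endothelial cells (HUVEC) and mesenchymal stem cells; the LSD1 inhibitor iadademstat was combined with standard-of-care or investigational agents. Top concentration at or near clinical Cmax, half-log dilutions; final DMSO ≤0.25%.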

Where [1] appears, read: curve of first compound, second compound 0.1 µM.
The mark [2] stands for this setting: curve of first compound, second compound 0.316 µM.
Setting [3] is: curve of first compound, second compound 1 µM.
Setting [4] is: curve of first compound, second compound 3.16 µM.
[5] abbreviates: curve of first compound, second compound 10 µM.
Where [6] appears, read: second compound 0.1 µM, first compound 0.00316 µM.
Setting [7] is: second compound 0.1 µM, first compound 0.01 µM.
Setting [8] is: second compound 0.1 µM, first compound 0.0316 µM.
The mark [9] stands for this setting: second compound 0.1 µM, first compound 0.1 µM.
Setting [10] is: second compound 0.1 µM, first compound 0.316 µM.
The mark [11] stands for this setting: second compound 0.1 µM, first compound 1 µM.
Where [12] appears, read: second compound 0.316 µM, first compound 0.00316 µM.
Setting [13] is: second compound 0.316 µM, first compound 0.01 µM.
[14] abbreviates: second compound 0.316 µM, first compound 0.0316 µM.
Setting [15] is: second compound 0.316 µM, first compound 0.1 µM.
The mark [16] stands for this setting: second compound 0.316 µM, first compound 0.316 µM.
[17] abbreviates: second compound 0.316 µM, first compound 1 µM.
[18] abbreviates: second compound 1 µM, first compound 0.00316 µM.
Setting [19] is: second compound 1 µM, first compound 0.01 µM.
The mark [20] stands for this setting: second compound 1 µM, first compound 0.0316 µM.
The mark [21] stands for this setting: second compound 1 µM, first compound 0.1 µM.
Where [22] appears, read: second compound 1 µM, first compound 0.316 µM.
The mark [23] stands for this setting: second compound 1 µM, first compound 1 µM.
[24] abbreviates: second compound 3.16 µM, first compound 0.00316 µM.
The mark [25] stands for this setting: second compound 3.16 µM, first compound 0.01 µM.
The mark [26] stands for this setting: second compound 3.16 µM, first compound 0.0316 µM.
The mark [27] stands for this setting: second compound 3.16 µM, first compound 0.1 µM.
[28] abbreviates: second compound 3.16 µM, first compound 0.316 µM.
[29] abbreviates: second compound 3.16 µM, first compound 1 µM.
Where [30] appears, read: second compound 10 µM, first compound 0.00316 µM.
Setting [31] is: second compound 10 µM, first compound 0.01 µM.
[32] abbreviates: second compound 10 µM, first compound 0.0316 µM.
Where [33] appears, read: second compound 10 µM, first compound 0.1 µM.
Where [34] appears, read: second compound 10 µM, first compound 0.316 µM.
[35] abbreviates: second compound 10 µM, first compound 1 µM.

One may read the IC50 as the point on the concentration scale where inhibition reaches its midpoint. Broadly, the viability, T/C is the ratio of treated to control.
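Further: spheroids exposed to agents for 7 days after 3 days growth.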

In the case of `NS(=O)(=O)OCC1CC(n2ccc3c(NC4CCc5ccccc54)ncnc32)CC1O` (centres undefined) + NC1CCC(NC2CC2c2ccccc2)CC1, the IC50 runs as follows: under setting [1], 41.9 nM; under setting [2], 42.7 nM; under setting [3], 31.1 nM; under setting [4], 32.7 nM; under setting [5], 39 nM. The viability, T/C was 109% (second compound 0.1 µM, first compound 0.00949 µM); 58.5% (second compound 0.1 µM, first compound 0.03 µM); 29.3% (second compound 0.1 µM, first compound 0.0949 µM); 23.5% (second compound 0.1 µM, first compound 0.3 µM); 27.9% (second compound 0.1 µM, first compound 0.949 µM); 23.8% (second compound 0.1 µM, first compound 3 µM). The viability, T/C is, setting by setting: (second compound 0.316 µM, first compound 0.00949 µM) 110%; (second compound 0.316 µM, first compound 0.03 µM) 58.5%; (second compound 0.316 µM, first compound 0.0949 µM) 30.5%; (second compound 0.316 µM, first compound 0.3 µM) 27.9%; (second compound 0.316 µM, first compound 0.949 µM) 27.3%; (second compound 0.316 µM, first compound 3 µM) 21.7%. In addition, the viability, T/C is 103% (second compound 1 µM, first compound 0.00949 µM); 50.7% (second compound 1 µM, first compound 0.03 µM); 23.8% (second compound 1 µM, first compound 0.0949 µM); 23.3% (second compound 1 µM, first compound 0.3 µM); 27.7% (second compound 1 µM, first compound 0.949 µM); 20.5% (second compound 1 µM, first compound 3 µM). Further, the viability, T/C was 109% (second compound 3.16 µM, first compound 0.00949 µM); 51.2% (second compound 3.16 µM, first compound 0.03 µM); 31.7% (second compound 3.16 µM, first compound 0.0949 µM); 22.8% (second compound 3.16 µM, first compound 0.3 µM); 25.1% (second compound 3.16 µM, first compound 0.949 µM); 19.2% (second compound 3.16 µM, first compound 3 µM). The viability, T/C (second compound 10 µM, first compound 0.00949 µM) was 94.6%; the viability, T/C (second compound 10 µM, first compound 0.03 µM) is 54.8%; the viability, T/C (second compound 10 µM, first compound 0.0949 µM) is 33.1%; the viability, T/C (second compound 10 µM, first compound 0.3 µM) is 26.1%; the viability, T/C (second compound 10 µM, first compound 0.949 µM) was 21.1%; the viability, T/C (second compound 10 µM, first compound 3 µM) is 16.9%.

Consider `CC1COCCN1c1cc(-c2ccnn2C)c2ccnc(-c3ccn[nH]3)c2n1` (centres undefined) + NC1CCC(NC2CC2c2ccccc2)CC1, for which the IC50 stood at 10.2 nM under setting [1]; 9.5 nM under setting [2]; 10.5 nM under setting [3]; 13.6 nM under setting [4]; 13.7 nM under setting [5]. Further, the viability, T/C runs as follows: under setting [6], 57%; under setting [7], 50.7%; under setting [8], 18.8%; under setting [9], 8.26%; under setting [10], 6.58%; under setting [11], 5.76%. Further, the viability, T/C is 63.3% under setting [12]; 49.5% under setting [13]; 19% under setting [14]; 8.72% under setting [15]; 6.3% under setting [16]; 6.44% under setting [17]. In addition, the viability, T/C was 65.3% under setting [18]; 51.2% under setting [19]; 24.1% under setting [20]; 10.6% under setting [21]; 6.7% under setting [22]; 7.53% under setting [23]. Further, the viability, T/C runs as follows: under setting [24], 70.8%; under setting [25], 58.9%; under setting [26], 25.7%; under setting [27], 9.54%; under setting [28], 7.15%; under setting [29], 6.61%. In addition, the viability, T/C runs as follows: under setting [30], 70%; under setting [31], 58.3%; under setting [32], 27.1%; under setting [33], 10.1%; under setting [34], 7.47%; under setting [35], 10.2%.

In the case of `COc1cc(Nc2ncc3c(n2)-c2ccc(Cl)cc2C(c2c(F)cccc2OC)=NC3)ccc1C(=O)O`, the viability, T/C was 91.6% and 57% (compound 0.00316 µM); 85.9% and 64.4% (compound 0.01 µM); 84.5% and 63.2% (compound 0.0316 µM); 89% and 58.9% (compound 0.1 µM); 80.6% and 54.1% (compound 0.316 µM); 51.5% and 30.1% (compound 1 µM). The IC50 (curve of compound) is > 1000 nM and 384 nM.

For the compound `CC1COCCN1c1cc(-c2ccnn2C)c2ccnc(-c3ccn[nH]3)c2n1` (centres undefined) + NC1CC1c1ccc(-c2cccc(O)c2)cc1, the concentration for half-maximal inhibition (IC50) turned out to be 6.07 nM under setting [1]; 4.76 nM under setting [2]; 4.38 nM under setting [3]; 6.57 nM under setting [4]; 4.98 nM under setting [5]. Also, the viability, T/C is 54.6% under setting [6]; 46.5% under setting [7]; 23.1% under setting [8]; 9.09% under setting [9]; 6.72% under setting [10]; 6.42% under setting [11]. The viability, T/C under setting [12] is 53.6%; the viability, T/C under setting [13] is 43.5%; the viability, T/C under setting [14] was 23.6%; the viability, T/C under setting [15] was 9.96%; the viability, T/C under setting [16] was 6.7%; the viability, T/C under setting [17] is 5.87%. Moreover, the viability, T/C was 51.1% under setting [18]; 47% under setting [19]; 25.3% under setting [20]; 9.83% under setting [21]; 6.55% under setting [22]; 5.67% under setting [23]. The viability, T/C was 56% under setting [24]; 46.4% under setting [25]; 23.8% under setting [26]; 8.53% under setting [27]; 5.95% under setting [28]; 5.45% under setting [29]. Also, the viability, T/C reads like this: under setting [30], 54.1%; under setting [31], 44%; under setting [32], 22.4%; under setting [33], 12.8%; under setting [34], 7.13%; under setting [35], 6.24%.

Consider `O=C(C=Cn1cnc(-c2cc(C(F)(F)F)cc(C(F)(F)F)c2)n1)NNc1cnccn1`, for which the viability, T/C was 16.8% and 17.6% (compound 0.00316 µM); 12.1% and 12.7% (compound 0.01 µM); 4.83% and 4.44% (compound 0.0316 µM); 1.49% and 1.82% (compound 0.1 µM); 1.62% and 1.88% (compound 0.316 µM); 1.54% and 1.63% (compound 1 µM). Further, for the setting “curve of compound”, the IC50 was less than 3.16 nM.
